In paper PMC7503308, “A Novel Urease Inhibitor of Ruminal Microbiota Screened through Molecular Docking” (International Journal of Molecular Sciences, 2020):

What was measured:
ruminal microbial urease [1] = assay: Urease inhibition assay (Berthelot alkaline phenol-hypochlorite method); assay type: biochemical, rumen bacteria of Chinese Holstein dairy cows
Procedure: Rumen fluid samples were collected from five Chinese Holstein dairy cows with permanent rumen fistula 3 h after feeding a total mixed ration in the morning. All the operations were conducted in accordance with the protocol approved by the Animal Care and Use Committee for Livestock of the Institute of Animal Sciences, Chinese Academy of Agricultural Sciences (Permit Number: IAS2019-14, Permit Date: 22-03-2019). All rumen fluid samples were filtered by a six layer sterilized medical gauze and mixed in a sterilized beaker before being evenly distributed into different 50 mL tubes and stored in liquid nitrogen. The deforested samples were centrifuged at 12,000× g for 10 min at 4 °C, then the supernatant was removed from the tube. The remaining sediments were resuspended in a HEPES buffer solution (pH 7.5, 50 mM) and then centrifuged at 12,000× g for 10 min at 4 °C. The supernatant was discarded and the remaining rumen bacteria were collected and stored at −80 °C for later urease extraction. All the sample handing processes were conducted on an ice bath. […]
In vitro urease inhibition screening assays were conducted to further narrow the virtual screened compounds for further IC50 determination and kinetic characterization. […] The ammonia that was produced was measured using 50 μL of a phenol reagent containing 10.0 g/L phenol and 50 mg/L of sodium nitroprusside, and 50 μL of alkali reagent containing 5 g/L sodium hydroxide and 8.4 mL/L of sodium hypochlorite solution, at 37 °C for 30 min. The absorbance of each well was measured at 625 nm by a micro plate spectrophotometer (Thermo Scientific Varioskan Flash G-282, Thermo Scientific, Waltham, MA, USA). The endogenous nitrogen (blank) was measured by adding a 70 μL HEPES buffer (pH 7.5, 50 mM) containing no urea and 20 μL methanol solution in the first 30 min of the reaction mixture. The 100% initial activity was determined by adding a 15 μL methanol solution in the first 30 min of the reaction mixture. […]

ruminal microbial urease [2] = assay: Kinetic characterization of urease inhibition (nonlinear Michaelis-Menten fitting); assay type: biochemical, rumen bacteria of Chinese Holstein dairy cows
Procedure: Rumen fluid samples were collected from five Chinese Holstein dairy cows with permanent rumen fistula 3 h after feeding a total mixed ration in the morning. All the operations were conducted in accordance with the protocol approved by the Animal Care and Use Committee for Livestock of the Institute of Animal Sciences, Chinese Academy of Agricultural Sciences (Permit Number: IAS2019-14, Permit Date: 22-03-2019). All rumen fluid samples were filtered by a six layer sterilized medical gauze and mixed in a sterilized beaker before being evenly distributed into different 50 mL tubes and stored in liquid nitrogen. The deforested samples were centrifuged at 12,000× g for 10 min at 4 °C, then the supernatant was removed from the tube. The remaining sediments were resuspended in a HEPES buffer solution (pH 7.5, 50 mM) and then centrifuged at 12,000× g for 10 min at 4 °C. The supernatant was discarded and the remaining rumen bacteria were collected and stored at −80 °C for later urease extraction. All the sample handing processes were conducted on an ice bath. Before each urease inhibition assay, 2 g of rumen bacteria were taken from the fridge and resuspended in a HEPES buffer followed by lysis through a high-pressure cell press JG-1A (Ningbo Scientz Biotechnology Co., Ltd., Ningbo, China). The hollow cylindrical sample loading element was placed in −80 °C for 10 min before the high-pressure lysis at 22,000 psi. […] The kinetic of the compound was determined by varying the concentration of urea in the presence of different compound 6238-0047 concentrations of 0.25 and 0.5 mM in the assay mixture. […] Maximal initial velocities were determined from the initial linear portion of the absorbance up to 10 min after the addition of the enzyme. Kinetic parameters Km and Vmax were calculated by the nonlinear fitting of different substrate concentrations against the velocities of the reaction at each different concentrations of compound 6238-0047 using the GraphPad Prism software as mentioned before.

## COc1ccc(-c2ccc(CCC(=O)O)n2NC(N)=O)cc1 [6238-0047, 3-[1-[(aminocarbonyl)amino]-5-(4-methoxyphenyl)-1H-pyrrol-2-yl] propanoic acid]
Ruminal microbial urease [1]; 0.5 mM compound, compared with other candidate compounds
  Percentage of inhibition against ruminal microbial urease: superior ruminal microbial urease inhibition capacity
Ruminal microbial urease [1]; ruminal microbial urease, 37 °C, 30 min, pH 7.5
  IC50: 65.9 µM
Ruminal microbial urease [2]; 0.25 mM of compound
  Vmax: 12.58 µM/min
Ruminal microbial urease [2]; 0.5 mM of compound
  Vmax: 9.67 µM/min
Ruminal microbial urease [2]; from change of Km, Vmax and Vmax/Km
  Inhibition mode: mixed type inhibitor
